pIC50: −log10 of the molar value. Converted amounts (≈) assume the structure as drawn.
Assays:
[1] = molecular target: Hemoglobin HbA (Homo sapiens, UniProt P68871+P69905); test: Inhibition of non-enzymatic glycation in hemoglobin (unknown origin) by spectrophotometric analysis; assay type: protein-complex assay
[2] = Lipophilicity, logP of compound; assay type: physicochemical; details: octanol/water
[3] = molecular target: T1, Alpha amylase (Homo sapiens, UniProt P0DUB6); test: Inhibition of alpha-amylase (unknown origin) assessed as reduction in conversion of starch to glucose preincubated for 10 mins followed by substrate addition and measured after 20 mins by DNSA reagent based spectrophotometric analysis
T1 sequence (P0DUB6 whole entry): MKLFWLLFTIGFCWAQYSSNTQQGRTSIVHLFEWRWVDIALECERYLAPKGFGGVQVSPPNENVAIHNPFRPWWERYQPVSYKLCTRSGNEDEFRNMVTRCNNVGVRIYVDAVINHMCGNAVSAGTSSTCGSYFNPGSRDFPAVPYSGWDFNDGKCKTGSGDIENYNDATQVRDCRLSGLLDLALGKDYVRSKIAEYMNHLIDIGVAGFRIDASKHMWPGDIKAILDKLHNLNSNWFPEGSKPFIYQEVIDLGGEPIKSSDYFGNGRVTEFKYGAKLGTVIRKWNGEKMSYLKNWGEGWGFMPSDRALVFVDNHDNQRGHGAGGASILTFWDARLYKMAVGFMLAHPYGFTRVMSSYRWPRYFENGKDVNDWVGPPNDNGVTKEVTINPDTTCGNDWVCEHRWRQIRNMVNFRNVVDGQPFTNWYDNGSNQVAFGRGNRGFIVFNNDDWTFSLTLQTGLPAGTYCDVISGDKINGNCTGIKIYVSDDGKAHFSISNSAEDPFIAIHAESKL

[4] = molecular target: Hemoglobin HbA (Homo sapiens) (UniProt P69905+P68871); test: Potency index, ratio of gallic acid IC50 to test compound IC50 for inhibition of non-enzymatic glycation in hemoglobin (unknown origin) by spectrophotometric analysis; assay type: protein-complex assay
[5] = molecular target: Alpha amylase (Homo sapiens) (UniProt P0DUB6); test: Potency index, ratio of acarbose IC50 to test compound IC50 for inhibition of alpha-amylase (unknown origin) assessed as reduction in conversion of starch to glucose preincubated for 10 mins followed by substrate addition and measured after 20 mins by DNSA reagent based spectrophotometric analysis; details: time 30.0 min

Hemoglobin HbA, sequence (P69905 whole entry): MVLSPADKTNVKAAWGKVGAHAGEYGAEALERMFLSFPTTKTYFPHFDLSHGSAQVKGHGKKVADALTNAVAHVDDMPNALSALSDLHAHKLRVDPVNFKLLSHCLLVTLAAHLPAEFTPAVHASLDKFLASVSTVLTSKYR
Hemoglobin HbA, sequence (P68871 whole entry): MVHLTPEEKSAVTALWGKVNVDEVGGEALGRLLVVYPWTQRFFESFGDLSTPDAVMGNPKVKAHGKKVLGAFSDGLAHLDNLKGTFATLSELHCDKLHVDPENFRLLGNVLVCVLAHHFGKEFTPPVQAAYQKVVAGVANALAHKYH
Hemoglobin HbA (Homo sapiens), sequence (P68871 2-147 partner limits assumed): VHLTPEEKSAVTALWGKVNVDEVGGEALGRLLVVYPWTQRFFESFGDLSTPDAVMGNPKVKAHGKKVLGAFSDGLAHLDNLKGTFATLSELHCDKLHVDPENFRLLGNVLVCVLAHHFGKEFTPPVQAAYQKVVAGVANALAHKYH
Hemoglobin HbA (Homo sapiens), sequence (P69905 2-142 limits assumed): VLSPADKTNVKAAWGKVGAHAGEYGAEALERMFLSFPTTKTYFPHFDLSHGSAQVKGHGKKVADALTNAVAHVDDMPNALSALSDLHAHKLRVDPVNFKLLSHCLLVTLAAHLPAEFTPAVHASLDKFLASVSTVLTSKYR

Structure (SMILES) | pIC50 [1] | logP [2] | IC50 [3] | Ratio IC50 [4] | Ratio IC50 [5]
CCn1nc(Cn2nnc(Cc3ccccc3)n2)cc1C | 2.71 | 2.88 | 2.36 mg/mL (≈ 8.36 mM) | – | –
CCn1nc(Cn2nnnc2-c2ccccn2)cc1C | 3.65 | 1.34 | 1.13 10^-4mg/ml | 2.8 | 3010
Cc1cc(Cn2nnc(Cc3ccccc3)n2)n[nH]1 | 2.97 | 2.5 | 5.59 mg/mL (≈ 22 mM) | – | –
CCn1nc(Cn2nnnc2Cc2ccccc2)cc1C | 2.92 | 2.1 | 0.023 mg/mL (≈ 0.0815 mM) | – | 15
Cc1cc(Cn2nnnc2-c2ccccn2)n[nH]1 | 3.45 | 0.86 | 4.82 10^-3mg/ml | 2 | 70
O=C(O)c1cc(O)c(O)c(O)c1 [GALLIC ACID] | 3.00 | – | – | – | –
Cc1cc(Cn2nnnc2Cc2ccccc2)n[nH]1 | 2.99 | 1.62 | 1.97 mg/mL (≈ 7.75 mM) | – | –
CCn1nc(Cn2nnc(-c3ccccn3)n2)cc1C | 2.60 | 2.08 | 0.54 mg/mL (≈ 2.01 mM) | – | –
Cc1cc(Cn2nnc(-c3ccccn3)n2)n[nH]1 | 2.71 | 1.69 | 0.95 mg/mL (≈ 3.94 mM) | – | –
